Laboratory results reported in article PMC10988762, “Inhibition of malaria and babesiosis parasites by putative red blood cell targeting small molecules” (Frontiers in Cellular and Infection Microbiology, 2024).
Where two headings read alike, the source gives them in different places. Marks after values point to notes of the source that are not given here.

Assays:
[1] = tested on: 293T; design: method as in PMID 19662183; settings: cellular proliferation ref PMID 19662183; read-out: Micromolar IC50 (293T); cited from earlier work
[2] = tested on: P. knowlesi YH1 strain; assay: microbe, parasite or virus in culture; type: cell-based, Plasmodium knowlesi; settings: Plasmodium knowlesi, 48 h, read-out: IC50 (S.D.), P. knowlesi
Method: (§1) The P. falciparum strains 3D7 and Dd2 were obtained from the Walter and Eliza Hall Institute (Melbourne, Australia) and the Malaria Research and Reference Reagent Resource, respectively. […] B. divergens parasites were maintained and assayed in mixed stages without synchronization.
(§2) Ring-stage P. falciparum (1%-parasitemia starting, 1%-hematocrit) and asynchronous B.divergens (0.5%-parasitemia starting, 3%-hematocrit) were incubated with plated compounds for 72h, and ring-stage P. knowlesi (1%-parasitemia starting, 1%-hematocrit) for 48h, before lysis and staining with dye. To quantify the species-specificity of the inhibitors, we divided the range of IC50s across the 4 test lines by the average IC50 across the same lines: inhibitors with increased scores show species-specific activity and reduced scores indicate broad-spectrum, pan-species activity.

[3] = tested on: BdC9 line of B. divergens; assay: Inhibitor susceptibility dose-response assay (SYBR-Green I), B. divergens; type: cell-based, Babesia divergens; settings: for IC50: Babesia divergens, read-out: IC50 (S.D.), B. divergens; for fold higher doses required for 50% inhibition of B. divergens than of the Plasmodium spp. lines: B. divergens vs Plasmodium spp. lines
Method: as §1, §2

[4] = tested on: P. falciparum strain Dd2; assay: Inhibitor susceptibility dose-response assay (SYBR-Green I), P. falciparum Dd2; type: cell-based, Plasmodium falciparum; settings: Plasmodium falciparum, read-out: IC50 (S.D.), P. falciparum-Dd2
Method: as §1, §2

[5] = tested on: P. falciparum strain 3D7; assay: Inhibitor susceptibility dose-response assay (SYBR-Green I), P. falciparum 3D7; type: cell-based, Plasmodium falciparum; settings: Plasmodium falciparum, read-out: IC50 (S.D.), P. falciparum-3D7
Method: as §1, §2

[6] = in vitro; settings: human
Description: (§3) We analyzed samples using a volumetric MACSQuant Analyzer Flow Cytometer (Miltenyi Biotec), manually resuspending each row immediately prior to sample uptake. We recorded 10,000 total events for each condition at the instrument-defined low flow rate. We assessed all compounds in 2 separate experiments with blood from different donors. […] All samples were gated for single cell events.

[7] = tested on: K562; design: method as in PMID 19662183; settings: cellular proliferation ref PMID 19662183; read-out: Micromolar IC50 (K562); cited from earlier work
[8] = tested on: uninfected RBCs; assay: Cellular phosphatidylserine exposure assay (annexin V flow cytometry);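 also: flow cytometry recording 10,000 events per condition, gated on single cells, with the two experiments using blood from separate donors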
Description: as §3

[9] = tested on: Plasmodium spp. lines; assay: Inhibitor susceptibility assays, summary over the Plasmodium spp. lines; type: cell-based; settings: for IC50: approximate value given in text for the Plasmodium spp. lines, read-out: IC50 against the Plasmodium spp. lines; for antiparasitic activity in vitro, in words, Plasmodium spp.: Plasmodium spp. parasites
Description: The P. falciparum strains 3D7 and Dd2 were obtained from the Walter and Eliza Hall Institute (Melbourne, Australia) and the Malaria Research and Reference Reagent Resource, respectively. The P. knowlesi YH1 strain adapted for growth in human erythrocytes and the BdC9 line of B. divergens were previously reported ([Lim et al., 2013]; [Rezvani et al., 2022]). All parasite lines were maintained in continuous culture in human erythrocytes O+ purchased from a commercial source (Research Blood Components, Boston USA) in RPMI-1640 medium as described (eg [Rezvani et al., 2022]), typically at 2%-hematocrit. Plasmodium parasites were synchronized using sorbitol (5% [wt/vol] for both P. falciparum and P. knowlesi; for P. knowlesi, with addition of 20 mM Na-HEPES and 0.1 mg/ml BSA) ([Lambros and Vanderberg, 1979]) at least once in the week prior to assays. B. divergens parasites were maintained and assayed in mixed stages without synchronization.
as §2, with “We carried out dose-response assays in 384-well plates (40 µl assay volume) for measurement with SYBR-Green I dye ([Mandt et al., 2019]), with test compounds pre-printed into wells via use of a D300 Digital Dispenser (Hewlett-Packard). Ring-stage” for “Ring-stage”

[10] = tested on: SW1990; design: method as in PMID 27487486; settings: cellular proliferation ref PMID 27487486; read-out: Micromolar IC50 (SW1990); cited from earlier work
[11] = experimental logP ref https://go.drugbank.com/drugs/DB08865; cited from earlier work
[12] = tested on: H2228; design: method as in PMID 30333870; settings: cellular proliferation ref PMID 30333870; read-out: Micromolar IC50 (H2228); cited from earlier work
[13] = tested on: uninfected RBCs; settings: 5x P. falciparum 3D7-IC50; 24, 48, 72h
Description: as §3

[14] = tested on: MEF; design: method as in PMID 29336889; settings: cellular proliferation ref PMID 29336889; read-out: Micromolar IC50 (MEF); cited from earlier work
[15] = tested on: P. falciparum (3D7); assay: Assay for inhibition of parasite proliferation via RBC-targeting (transient exposure of RBCs, wash, then infection); type: cell-based, Plasmodium falciparum; settings: transient vs continued exposure; dose-response format where stated, n=3
Method: All plates were frozen for storage before assay. For assay, duplicate plates were preincubated with donor O+ RBCs at 2% hematocrit at 37°C in 50µL for 4-5 hours. Following preincubation, one but not the other plate in each pair was washed 4X in complete RPMI to dilute inhibitor. We transferred RBCs from both washed and unwashed plates to black, clear bottom 96-well plates (Corning Cat. No. 3904) and supplemented these suspensions with MACS-purified P. falciparum (3D7) schizonts for a starting parasitemia of 0.1% - 0.25% at 1% hematocrit. Following 72h incubation in standard culture conditions, samples were processed for SYBR-Green I signal ([Mandt et al., 2019]). […] To identify host-targeting compounds, we compared DMSO-treated to inhibitor-treated samples (Students t-test, paired). We carried out the assay with 1 µM mefloquine (Sigma-Aldrich Cat. No. M2319) as a control for reversible inhibition. All assays were conducted in biological triplicate, with each experiment utilizing different donor RBCs. For select compounds, we carried out this same assay in a dose-response series (n=3 experiments). Following normalization to DMSO-controls, we assessed inhibitor activity following transient exposure of RBCs by Two-Way ANOVA tests for repeated measures (Graphpad Prism v9): high P values indicate support for the null hypothesis that dose-dependent inhibition is not modulated by dilution after exposure, consistent with a direct inhibitory effect of the compounds on RBCs persisting after transient exposure.

[16] = tested on: P. falciparum 3D7; assay: Co-administration with established antimalarials, IC50 shift; type: cell-based, Plasmodium falciparum; settings: P<0.05
Description: Our experimental compound set is weighted toward kinase inhibitors, reflecting the high degree of small molecule development in this target space.

[17] = tested on: Plasmodium berghei; design: method as in Wu et al., 2017; settings: mouse model of severe malaria with Plasmodium berghei ref Wu et al., 2017; cited from earlier work
[18] = 72h, asynchronous, n=3 experiments (or 2 where indicated with *)
[19] = DD2, 72h, ring-stage, n=3 experiments (or 2 where indicated with *)
[20] = 3D7, 72h, ring-stage, n=3 experiments (or 2 where indicated with *)
[21] = uninfected RBCs (red blood cells), 1% hematocrit
[22] = 24h, 5x P. falciparum 3D7-IC50, % of RBCs, mean of 2 experiments
[23] = 5x P. falciparum 3D7-IC50, % of RBCs, mean of 2 experiments
[24] = 72h, 5x P. falciparum 3D7-IC50, % of RBCs, mean of 2 experiments

| Compound | IC50 [2] [nM] | IC50 [3, 18] [nM] | IC50 [4, 19] [nM] | IC50 [5, 20] [nM] | hemolysis at 24 h, 5 x P. falciparum 3D7-IC50 [6, 21] [%] | hemolysis at 48 h, 5 x P. falciparum 3D7-IC50 [6, 21] [%] | hemolysis at 72 h, 5 x P. falciparum 3D7-IC50 [6, 21] [%] | Phosphatidylserine exposure (%) 24h [8, 22] [%] | Phosphatidylserine exposure (%) 48h [8, 23] [%] | Phosphatidylserine exposure (%) 72h [8, 24] [%] | IC50 [9] [nM] | fold higher doses required for 50% inhibition of B. divergens than of the Plasmodium spp. lines [3] [fold] | IC50 ([3]; 72 h) [nM] | IC50 ([4]; DD2, 72 h) [nM] | IC50 ([5]; 3D7, 72 h) [nM] | antiparasitic activity in vitro, in words, Plasmodium spp. [9] | antiparasitic activity in vitro, in words, B. divergens [3] | further results |
| --- | --- | --- | --- | --- | --- | --- | --- | --- | --- | --- | --- | --- | --- | --- | --- | --- | --- | --- |
| Cc1ccc(NC(=O)c2ccc(CN3CC[C@H](N(C)C)C3)c(C(F)(F)F)c2)cc1Nc1nccc(-c2cncnc2)n1 [Bafetinib] | 2000 | 12000 | 3000 | 2000 | 1 | 6 | 4 | 2 | 2 | 4 | – | – | – | – | – | – | – | IC50 [1]: 2.2 nM; IC50 [7]: 1.1 nM |
| CCCC[C@@H](C=O)NC(=O)[C@H](CC(C)C)NC(=O)OCc1ccccc1 [Calpeptin] | 900 | – | – | – | 0 | 8 | 17 | 2 | 2 | 5 | ~1000 | > 30 | 40000 | 1300 | 1000 | – | – | IC50 [10]: 74200 nM |
| C[C@@H](Oc1cc(-c2cnn(C3CCNCC3)c2)cnc1N)c1c(Cl)ccc(F)c1Cl [Crizotinib] | 800 | – | – | – | – | – | – | – | 2 | – | – | – | 3000 | 140 | 700 | potent submicromolar activity | single-digit micromolar activity | hemolysis at 24 h, 5 x P. falciparum 3D7-IC50 [6]: 1%; hemolysis at 48 h, 5 x P. falciparum 3D7-IC50 [6]: 9%; hemolysis at 72 h, 5 x P. falciparum 3D7-IC50 [6]: 14%; logP (octanol-water partition coefficient), experimental [11]: Crizotinib [drawing 15] (450.3; 1.83^2); IC50 [12]: 311 nM; Phosphatidylserine exposure (%) 24h [8]: 1%; Phosphatidylserine exposure (%) 72h [8]: 5% |
| CC(=O)Nc1cccc(-n2c(=O)n(C3CC3)c(=O)c3c(Nc4ccc(I)cc4F)n(C)c(=O)c(C)c32)c1 [Trametinib] | 100 | 6000 | 110 | 90 | -1 | 7 | 15 | 2 | 2 | 5 | ~100 | > 30 | – | – | – | potent submicromolar activity | single-digit micromolar activity | hemolysis of RBCs, in words [13]: similarly low levels; IC50 [14]: 1.6 to 4.8 nM; inhibitory activity following transient exposure of RBCs, in words [15]: does not persist beyond transient exposure; reduction in the IC50 of chloroquine in combination with fixed, sublethal dose of test compound [16]: ≤ 2 fold; reduction in the IC50 of mefloquine in combination with fixed, sublethal dose of test compound [16]: ≤ 2 fold; survival of infected mice [17]: improve survival of infected mice; PS exposure on RBCs, in words ([8]; 5x P. falciparum 3D7-IC50, 24, 48, 72h): similarly low levels |
